According to patent US9439986B2, “Tricarbonyl technetium-99m, rhenium-185/187, or rhenium-188 labeled cyclic RGD derivatives and uses thereof” (BIO IMAGING KOREA CO., LTD., priority 2010, dated 2016):
Blank lines part the entries; values can stand above or below the substance they belong to.

Tests used:
[1] = tested on: tumor
Protocol: The small-animal SPECT/CT was used to acquire static imaging of the mice for 60 minutes after the injection. The imaging protocol consisted of repetition of emission and transmission as follows: [10 min emission+transmission]×6 times

[2] = tested on: integrin αvβ3; settings: cRGDyV 18 mg/Kg tail vein 10 minutes before; at 25 minutes post-injection; compared to images of FIG. 6
Protocol: Upon injection, SPECT/CT images were acquired under following conditions:
The animal models were anesthetized with 2% isofluorane gas for the duration of image acquisition time, and the tumor size of the animal models was 0.4 cc. CT images were taken under condition of 45 v, 178 μA for 4 min and 30 sec., and acquired at 10 minute intervals for total 9 times (i.e., for 90 minutes after the injection).

[3] = tested on: subcutaneous tumor; assay: Tumor growth suppression and treatment performance of rhenium-188 labeled derivative in tumor model mice (I); type: in vivo
Protocol: Treatment effect experiment was conducted to investigate the ability of tricarbonyl rhenium-188 labeled cyclic RGD derivative to suppress tumor growth.
The rhenium-188 labeled cyclic RGD derivative of Example 5 was injected once in a week, for four weeks. The models to determine treatment effect were divided into small radioactive injection group (300 μCi) and large radioactive injection group (600 μCi), and at the same time, a control group injected with sterilized saline and a comparative group injected with 100 μg of cyclic RGD (cRGDyV) intraperitoneally everyday, were also set. The compound of Example 11 and the sterilized saline were administered through tail veins. The CT images was taken once a week, to visually measure the growth and size of the subcutaneous tumor. The tumor was actually measured three times a week using Vernier Calipers, and the weights of the animal models were also consistently measured three times a week for total 4 weeks.

[4] = 100 μg cyclic RGD (cRGDyV) intraperitoneally everyday, initial tumor size 0.7 cc
[5] = 600 μCi once a week for four weeks
[6] = 600 μCi once a week, 0.3 cc at initial measurement

Substance: (tricarbonyl [^188Re]rhenium-N-α-bis-hydroxycarbonyl methyl-aspartic acid)-[cyclic(lysine-alginine-glycine-aspartic acid-D-phenylalanine)]2 [Example 12]
CD31 blood vessel staining of tumor tissue slice ([1]; 600 μCi/200 μL): no clear vessels were observed | integrin αvβ3 distribution in tumor tissue slice using Q-dot RGD derivatives ([1]; 600 μCi/200 μL): most integrin was damaged | reduction of uptake rate in tumor (SPECT with the compound of Example 15) versus non-administered model ([1]; 600 μCi/200 μL, SPECT after three days): 59% | distribution of blood vessels around the tumor (photographs of removed tumors) ([1]; 600 μCi/200 μL, versus non-administered model): noticeably less distribution of ambient blood vessels

Substance: (tricarbonyl-[^99mTc]technetium-N-α-bis-hydroxycarbonyl methyl-aspartic acid)-[cyclic (lysine-alginine-glycine-aspartic acid-D-phenylalanine)]2 [Example 15]
reduction of absorption in tumor after administration of cyclic RGD (cRGDyV) [2]: ≥ 94%

weight of animals after treatment ([3]; 100 μg cyclic RGD (cRGDyV) intraperitoneally everyday, initial measurement 23 g): 30 g
Substance: cRGDyV [cyclic RGD]
rate of tumor growth compared with sterilized saline group ([3]; 100 μg cyclic RGD (cRGDyV) intraperitoneally everyday): no meaningful difference | tumor size at 2 week [3, 4]: 3.9 cc | tumor size at 3 week [3, 4]: 8.0 cc | tumor size at last week of treatment [3, 4]: 12.9 cc

Substance: cyclic{(tricarbonyl-[^185/187Re]rhenium-N-α-bis-hydroxycarbonyl methyl-alginine-glycine-aspartic acid-D-phenylalanine} [Example 6]
tumor size after three days ([1]; 600 μCi/200 μL single injection, initial size 0.3 cc, non-administered model 0.65 cc): 0.35 cc

Substance: cyclic{(tricarbonyl-[^188Re]rhenium-N-α-bis-hydroxycarbonyl methyl-glycine-CONH(CH2CH2O)4CH2CH2CONH-lysine)-alginine-glycine-aspartic acid-D-phenylalanine} [Example 11]
tumor growth suppression ability compared to sterilized saline or cyclic RGD groups ([3]; 300 μCi once a week for four weeks): approximately 50% | tumor size when the treatment for four weeks was ended ([3]; 300 μCi tail vein once a week for four weeks, initial tumor size 0.23 cc): 0.66 cc | tumor growth suppression ability compared to low radiation energy treatment group (300 μCi) [3, 5]: approximately 79% | tumor growth suppression ability compared to sterilized saline and cyclic RGD groups [3, 5]: approximately 90% | tumor size at the end of the treatment ([3]; 600 μCi once a week for four weeks, 0.3 cc at initial measurement): 1.4 cc | tumor size at 3 week [3, 6]: 0.7 cc | tumor size at week 2 [3, 6]: 0.3 cc
